{"source": "patent US20250062040A1", "about": "“COMPUTER-BASED SYSTEMS FOR ACQUIRING AND ANALYZING OBS[…] DATA” (priority 2021, published 2025)", "key": {"[1]": {"assay": "eye temperature by automated thermographic system of behavioral platform", "format": "in vivo, mice", "conditions": "1 mg/kg intraperitoneally, tested after 15 minutes, 45-minute session, vs vehicle, FIG. 37", "source_text": "In some embodiments, with regard to image calibration, in an experimental session, actual Peltier temperatures may be logged and saved along with the thermal camera video. The logged Peltier temperatures in Celsius can be paired to the optical density (OD) levels measured at the two Peltier ROIs in each corresponding frame, so that a linear calibration curve can be used to convert the OD of measured eye ROIs to degrees Celsius.\nIn some embodiments, the subject body, such as a mouse, can be segmented based on the optical density distribution on each frame. The contour of the mouse can be masked by finding the largest eight-connected objects in the binarized image as shown in FIG. 36. […] The size of the eye region relative to the mask and shape properties such as ‘Eccentricity’ (ratio of the distance between the foci of the ellipse and its major axis length) and ‘Solidity’ (proportion of the pixels in the convex hull that are also in the region, computed as Area/ConvexArea) can be measured to filter out false positives, when those parameters may be outside of the range learned from manually annotated ground truth examples.\nIn some embodiments, with regard to feature extraction, the average OD of automatically detected eye ROIs can be converted to Celsius based on the calibration curve. […]"}, "[2]": {"assay": "core temperature by rectal temperature measurement", "format": "in vivo, mice", "conditions": "1 mg/kg intraperitoneally; before injection vs just prior to thermal camera recording", "description": "In some embodiments, a validation experiment can test whether this method may effectively detect changes in body temperature induced by drugs from thermal videos. In one such test, two groups of mice can be treated with chlorpromazine 1 mg/kg (n=13) or vehicle (n=14) intraperitoneally, and tested after 15 minutes under the thermal camera system. An average change of 0.9 degree Celsius in core temperature was observed by measuring rectal temperature of animals before injection and just prior to their thermal camera recording."}, "Male SD rats": {"test_system": "Male SD rats", "assay": "rat forced swim test, long lasting antidepressant-like effects", "format": "in vivo", "conditions": "vs vehicle group, p<0.05; IP 24 H prior to testing; ketamine 10 mg/kg, Enantiomer I2 30 mg/kg", "description": "Male SD rats from Envigo (IN) were used in the study. Ketamine (10 mg/kg) was dissolved in saline and administered IP at a dose volume of 1 ml/kg 24 H prior testing. Enantiomer I2 was dissolved in PBS and administered IP at a dose volume of 1 ml/kg 24 H prior to testing. Videos were scored by an observer blinded to the treatment and frequency of immobility, climbing and swimming were measured. Data were analyzed by ANOVA followed by post hoc analysis where appropriate."}, "[3]": {"assay": "pEEG spectral power signature", "format": "in vivo", "conditions": "2-h post-injection, normalized against baseline, different doses, FIG. 21", "description": "In some embodiments, pEEG may be recorded 1 hour before drug administration and for 2 hours after drug administration from all recorded brain regions simultaneously. To maximize the clinical translatability of a pEEG preclinical database, the frontal cortex and parietal cortex can be selected without limitation. ECoG EEG from these electrodes may be shown to offer direct rodent-to-human translation. Additionally, the hippocampus and striatum can be targeted for indwelling local field potential (LFP) recordings to investigate pharmacological responses on brain regions known to be innervated by different neurotransmitter systems.\nIn some embodiments, pEEG data consumed by a behavioral platform classier or other machine learning model can be processed first to remove artifacts. […] The average standard frequency bands are shown in Table IV listing the analyzed standard frequency bands. […]\nIn some embodiments, a normalization against the baseline pre-drug may be convenient, although other types of normalization may be used without limitation. pEEG and accelerometer spectrums can be normalized to the corresponding mean value x_mean during the pre-dosing interval [0, 1 hour](baseline): x_norm=(x−x_mean)/x_mean. For both pEEG and accelerometer data, the post-dosing features (obtained during the 2-hour post-dosing period) can be expressed as percent change from pre-dose baseline. […]"}}, "data": [{"smiles": "CN(C)CCCN1c2ccccc2Sc2ccc(Cl)cc21", "note": "[chlorpromazine]", "values": [{"measurement": "estimated eye temperature", "setting": "[1]", "value": "decrease of estimated eye temperature"}, {"measurement": "average change in core temperature (rectal temperature)", "setting": "[2]", "value": 0.9, "unit": "degree Celsius"}]}, {"smiles": "CNC1(c2ccccc2Cl)CCCCC1=O", "note": "(centres unmarked) [ketamine]", "values": [{"measurement": "frequency of immobility in the forced swim", "setting": "Male SD rats", "value": "reduced immobility"}, {"measurement": "frequency of swimming in the forced swim", "setting": "Male SD rats", "value": "increased swimming"}, {"measurement": "change in pEEG power of high frequencies (gamma)", "setting": "[3]", "value": "dose-dependent short-term increase"}]}]}
